{
  "source": "patent US20020031818A1",
  "about": "“Modification of Mdm2 activity” (priority 2000, published 2002)",
  "key": {"p53-mediated apoptosis": {"test_system": "p53-mediated apoptosis", "assay": "Apoptosis assay (DNA fragmentation, flow cytometry) in Mdm2/p53 double null cells", "format": "cell-based", "settings": "co-expression with p53 in Mdm2/p53 double null cells", "description": "FIGS. 5A-5D. Mdm2 sumoylation or mutation on Lys446 increases p53 ubiquitination and degradation and decreases p53 ability to mediate apoptosis. […] WCE was immunoprecipitated using monoclonal p53 antibodies. […] B. Ubiquitinated Mdm2 is less efficient in targeting the ubiquitination of p53. Bacterially expressed Mdm2 ([…]) was subjected to in vitro ubiquitination (self ubiquitination) in the presence of E1 [45 ng], E2 UbcH5b [1.5 μg] and ubiquitin [3 μg; SIGMA] and […] in ubiquitination buffer for the 0, 2, or 3 h (to ensure efficient self-ubiquitination) as indicated in Figure. To monitor the degree of Mdm2's ability to target the ubiquitination of p53, equal amounts of the self-ubiquitinated Mdm2 were extensively washed with TBS/0.5% Triton X-100 before incubated with bacculovirus-expressed and purified form of HA-tagged p53 for 2 h in the presence of E1, E2 and ubiquitin. The degree of p53 ubiquitination was monitored via immunoblot analysis using antibodies to HA. C. […]\nMdm2/p53 double null cells were transfected with Mdm2 constructs (as indicated) and marker plasmid encoding Green Fluorescent Protein, pEGFP (1 μg). […] The percentage of cells to the left of the diploid G0/1 peak, characteristic of hypodiploid cells, was calculated as the percentage of apoptotic cells."}, "Mdm2 [1]": {"test_system": "Mdm2", "assay": "In vivo ubiquitination of Mdm2 in EJ cells (HA-Ub, Mdm2 immunoprecipitation)", "format": "cell-based, mouse", "description": "FIG. 14A-14E. A. In vitro ubiquitination of Mdm2 is inhibited by p19^ARF. GST-Mdm2 was subjected to an in vitro ubiquitination reaction using purified forms of E1, E2 and Ub-HA in the presence of ATP. Addition of bacculovirus-purified p19^ARF at the indicated concentrations blocked Mdm2 ubiquitination. Glutathione bead-coupled GST-Mdm2 in its ubiquitinated or non-ubiquitinated forms was washed and analyzed on immunoblots using antibodies to HA (upper panel). Middle panel depicts the level of Mdm2 expression and the lower panel, the level of p19^ARF added to the reaction. B. p19^ARF expression increases Mdm2 self-ubiquitination in EJ cells. EJ cells were transfected with the indicated plasmids. Cells were harvested 36 h later and proteins ([…]) were immunoprecipitated using Mdm2 antibodies (2A10). Immunoprecipitated material was washed and proteins loaded onto 10% SDS-PAGE, followed by immunoblot analysis with HA-antibodies to detect covalent HA-ubiquitin conjugation to Mdm2 (upper panel). Middle panel depicts level of immunoprecipitated Mdm2. Lower panel represents western analysis of p19^ARF expression levels. C. In vitro ubiquitination of Mdm2 in the presence of p19^ARF and protein extracts. […] The level of p53 immunoprecipitated was monitored in immunoblots using polyclonal antibodies to p53 (middle). […]"}, "Mdm2 [2]": {"test_system": "Mdm2", "assay": "35S pulse-chase half-life of Mdm2 forms in p53/Mdm2 double null cells", "format": "cell-based, human", "settings": "lactacystin 25 μM", "procedure": "C. p53/Mdm2 double null cells were transfected with the wt or K1 forms of Mdm2 and 24 h later were subjected to pulse chase labeling with ^35S-methionine in the absence or presence of lactacystin (25 μM) as indicated in Figure. Proteins prepared at the indicated time-points were immunoprecipitated using monoclonal antibodies to Mdm2 followed by autoradiography.\np53/Mdm2 double null cells were transfected with wt or K1 forms of Mdm2 expression vectors (4 μg). ^35S-methionine (1 mCi) was added to the cell cultures 24 h after transfection for 5 hr (pulse) followed by chase (2 mM cold methionine) for the indicated time-points. Protein extracts (1 mg) were used for immunopurification of Mdm2 using mixture of monoclonal antibodies (2A-10/3 F1). Immunoprecipitated Mdm2 was washed, separated on 10% SDS-PAGE and analyzed by autoradiography."}},
  "data": [
    {"compound": "K1: Mdm2 mutant with lysine 446 substituted for arginine", "values": [
      {"measurement": "decrease in p53-induced apoptosis (cell death) compared with wt Mdm2", "setting": "p53-mediated apoptosis", "value": "greater decrease in degree of cell death"}
    ]},
    {"compound": "C[S+]([O-])c1ccc(-c2nc(-c3ccncc3)c(-c3ccc(F)cc3)[nH]2)cc1", "note": "(centres unmarked) [SB203580]", "values": [
      {"measurement": "p19ARF-mediated Mdm2 ubiquitination in inhibitor-treated cells", "setting": "Mdm2 [1]; EJ cells with Flag-Mdm2, p19ARF, HA-Ub, PD 98059 50 μM, SB203580 10 and 100 μM, LY294002 50 μM, Herbimycin 1 μM", "value": "capable of attenuating p19^ARF-mediated Mdm2 ubiquitination"},
      {"measurement": "increase in Mdm2 ubiquitination after UV treatment in inhibitor-pretreated cells", "setting": "Mdm2 [1]; SB203580 10 μM or LY294002 50 μM, 2 h prior to harvest", "value": "attenuated"}
    ]},
    {"compound": "CC(=O)N[C@@H](CSC(=O)[C@]1([C@@H](O)C(C)C)NC(=O)[C@H](C)[C@@H]1O)C(=O)O", "note": "[lactacystin]", "values": [
      {"measurement": "effect on half life of K1 form of Mdm2", "setting": "Mdm2 [2]; K1 expressing cells", "value": "remained unchanged"},
      {"measurement": "effect on half-life of p75 and p90 forms of Mdm2", "setting": "Mdm2 [2]; wt Mdm2 transfected cells", "value": "prolonged the half-life of both p75 and p90"}
    ]}
  ]
}
